According to ChEMBL document CHEMBL1909046, “DrugMatrix in vitro pharmacology data”:

How the values were obtained:
D(3) dopamine receptor = D(3) dopamine receptor (Homo sapiens, UniProt P35462); assay: DRUGMATRIX: Dopamine D3 radioligand binding (ligand: [3H] Spiperone); assay type: cell membranes, CHO, Membrane; details: for Ki: read-out: Ki
[1] = target: T1, Amine oxidase [flavin-containing] A (Homo sapiens, UniProt P21397); assay: DRUGMATRIX: Monoamine Oxidase MAO-A enzyme inhibition (substrate: Kynuramine); set-up: species or system BTI-TN-5B1-4; details: Not Active = under 50% inhibition at 10 µM
T1 sequence (P21397 whole entry): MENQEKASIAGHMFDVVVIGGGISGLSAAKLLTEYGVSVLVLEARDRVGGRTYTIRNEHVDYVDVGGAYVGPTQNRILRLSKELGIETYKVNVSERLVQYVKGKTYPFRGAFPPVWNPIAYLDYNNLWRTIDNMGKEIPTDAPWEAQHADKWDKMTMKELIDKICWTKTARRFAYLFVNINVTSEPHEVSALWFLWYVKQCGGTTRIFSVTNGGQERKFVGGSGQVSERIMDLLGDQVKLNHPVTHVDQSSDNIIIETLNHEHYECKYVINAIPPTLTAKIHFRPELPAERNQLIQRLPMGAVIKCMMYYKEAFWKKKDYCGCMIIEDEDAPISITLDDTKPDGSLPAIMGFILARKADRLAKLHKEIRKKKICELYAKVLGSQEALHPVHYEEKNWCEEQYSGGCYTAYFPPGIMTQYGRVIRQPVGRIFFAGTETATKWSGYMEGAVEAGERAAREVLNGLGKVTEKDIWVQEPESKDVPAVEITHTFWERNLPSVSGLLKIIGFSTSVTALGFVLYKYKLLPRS

D(4) dopamine receptor = target: T2, D(4) dopamine receptor (Homo sapiens, UniProt P21917); assay: DRUGMATRIX: Dopamine D4.2 radioligand binding (ligand: [3H] Spiperone); assay type: cell membranes, CHO-K1, Membrane; details: cho-k1, Not Active = under 50% inhibition at 10 µM
T2 sequence (P21917 whole entry): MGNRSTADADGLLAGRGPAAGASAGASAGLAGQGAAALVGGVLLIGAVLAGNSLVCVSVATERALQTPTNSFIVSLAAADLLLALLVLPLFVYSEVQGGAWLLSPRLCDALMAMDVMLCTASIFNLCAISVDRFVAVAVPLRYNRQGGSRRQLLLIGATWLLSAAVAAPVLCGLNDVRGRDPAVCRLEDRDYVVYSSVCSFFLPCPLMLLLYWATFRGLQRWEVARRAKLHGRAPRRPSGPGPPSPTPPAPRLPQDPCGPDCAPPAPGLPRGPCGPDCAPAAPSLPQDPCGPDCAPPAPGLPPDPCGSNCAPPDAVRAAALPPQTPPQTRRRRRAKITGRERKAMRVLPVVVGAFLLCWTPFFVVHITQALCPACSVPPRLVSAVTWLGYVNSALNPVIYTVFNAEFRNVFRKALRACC

[2] = target: Delta-type opioid receptor (Homo sapiens, UniProt P41143); assay type: cell membranes, Membrane; details: hek293; note: in other assays of this panel Not Active means under 50% inhibition at 10 µM
[3] = DRUGMATRIX: ATPase, Na+/K+ enzyme inhibition (substrate: ATP); assay type: tissue-based, Sus scrofa, Heart; details: Not Active = under 50% inhibition at 10 µM
Cytochrome P450 2D6 = Cytochrome P450 2D6 (Homo sapiens, UniProt P10635); details: bti-tn-5b1-4; note: in other assays of this panel Not Active means under 50% inhibition at 10 µM
Sequence of Cytochrome P450 2D6 (P10635 whole entry): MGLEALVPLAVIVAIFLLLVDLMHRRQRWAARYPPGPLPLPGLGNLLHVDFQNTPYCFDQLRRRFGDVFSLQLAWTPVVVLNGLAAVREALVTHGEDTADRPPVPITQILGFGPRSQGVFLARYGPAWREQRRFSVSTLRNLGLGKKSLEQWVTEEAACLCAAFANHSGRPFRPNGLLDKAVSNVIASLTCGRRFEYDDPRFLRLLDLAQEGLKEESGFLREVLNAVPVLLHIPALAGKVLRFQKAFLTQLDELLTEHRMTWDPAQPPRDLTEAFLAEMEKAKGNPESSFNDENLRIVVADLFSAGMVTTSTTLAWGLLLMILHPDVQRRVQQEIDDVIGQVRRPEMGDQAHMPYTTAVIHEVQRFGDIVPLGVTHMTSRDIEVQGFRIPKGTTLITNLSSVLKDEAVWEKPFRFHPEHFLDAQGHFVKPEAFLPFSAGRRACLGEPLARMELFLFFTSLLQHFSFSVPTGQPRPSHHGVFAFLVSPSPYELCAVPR

Sequence of D(3) dopamine receptor (P35462 whole entry): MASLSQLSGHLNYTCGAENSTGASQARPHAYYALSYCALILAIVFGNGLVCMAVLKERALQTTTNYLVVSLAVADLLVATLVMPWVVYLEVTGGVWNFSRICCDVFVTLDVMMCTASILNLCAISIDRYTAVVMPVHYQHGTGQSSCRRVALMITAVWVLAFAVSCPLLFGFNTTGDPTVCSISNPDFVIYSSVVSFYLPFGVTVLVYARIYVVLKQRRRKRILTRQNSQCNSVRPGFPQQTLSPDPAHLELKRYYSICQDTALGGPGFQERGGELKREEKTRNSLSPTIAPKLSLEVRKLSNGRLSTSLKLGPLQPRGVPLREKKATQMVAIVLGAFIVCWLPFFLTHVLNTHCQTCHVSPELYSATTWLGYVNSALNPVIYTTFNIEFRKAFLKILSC
Sequence of Delta-type opioid receptor (P41143 whole entry): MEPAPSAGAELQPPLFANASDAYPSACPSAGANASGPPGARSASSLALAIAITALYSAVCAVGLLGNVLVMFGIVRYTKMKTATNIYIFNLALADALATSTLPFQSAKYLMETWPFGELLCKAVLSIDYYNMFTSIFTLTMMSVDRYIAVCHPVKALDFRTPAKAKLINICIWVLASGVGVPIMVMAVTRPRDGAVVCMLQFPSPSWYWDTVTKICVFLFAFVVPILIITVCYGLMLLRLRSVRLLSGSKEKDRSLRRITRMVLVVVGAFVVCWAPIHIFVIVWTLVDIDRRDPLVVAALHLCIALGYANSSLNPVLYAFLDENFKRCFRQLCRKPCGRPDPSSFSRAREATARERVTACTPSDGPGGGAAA

Row | Compound | IC50 (D(3) dopamine receptor; cho) | IC50 ([1]; bti-tn-5b1-4) | IC50 (D(4) dopamine receptor) | IC50 [2] | IC50 [3] | Ki [3] | IC50 (Cytochrome P450 2D6) | Ki (Cytochrome P450 2D6) | IC50 ([1]; read-out: IC50) [µM] | IC50 (D(3) dopamine receptor; cho, read-out: IC50) [nM] | Ki (D(3) dopamine receptor; cho) [nM] | Ki ([1]; bti-tn-5b1-4) | Ki (D(4) dopamine receptor; read-out: Ki) [nM] | Ki [2] | IC50 (D(3) dopamine receptor; read-out: IC50) [nM] | Ki (D(3) dopamine receptor) [nM]
1 | Cn1c(=O)c2c(ncn2CC(O)CO)n(C)c1=O (stereo unspecified) [DYPHYLLINE] | Not Active | Not Active | Not Active | Not Active | Not Active | Not Active | Not Active | Not Active | – | – | – | – | – | – | – | –
2 | O=C(O)c1cccnc1Nc1cccc(C(F)(F)F)c1 [NIFLUMIC ACID] | Not Active | Not Active | Not Active | Not Active | Not Active | Not Active | Not Active | Not Active | – | – | – | – | – | – | – | –
3 | CC(C)c1cccc(C(C)C)c1O [PROPOFOL] | Not Active | Not Active | Not Active | Not Active | Not Active | Not Active | – | – | – | – | – | – | – | – | – | –
4 | COC(=O)Nc1nc2ccc(C(=O)c3cccs3)cc2[nH]1 [NOCODAZOLE] | Not Active | – | Not Active | Not Active | Not Active | Not Active | Not Active | Not Active | 24.1 | – | – | – | – | – | – | –
5 | N=C(N)NC(=O)Cc1c(Cl)cccc1Cl [GUANFACINE] | Not Active | Not Active | Not Active | Not Active | Not Active | Not Active | Not Active | Not Active | – | – | – | – | – | – | – | –
6 | CC(C)NCC(O)COc1cccc2[nH]ccc12 (stereo unspecified) [PINDOLOL] | Not Active | Not Active | Not Active | Not Active | Not Active | Not Active | – | – | – | – | – | – | – | – | – | –
7 | CC(=O)[C@@]1(O)CC[C@H]2[C@@H]3CCC4=CC(=O)CC[C@]4(C)[C@H]3CC[C@@]21C [HYDROXYPROGESTERONE] | Not Active | Not Active | Not Active | Not Active | Not Active | Not Active | – | – | – | – | – | – | – | – | – | –
8 | CC(=O)O[C@H]1C(=O)[C@@]2(C)[C@H]([C@H](OC(=O)c3ccccc3)[C@]3(O)C[C@H](OC(=O)[C@H](O)[C@@H](NC(=O)c4ccccc4)c4ccccc4)C(C)=C1C3(C)C)[C@]1(OC(C)=O)CO[C@@H]1C[C@@H]2O [PACLITAXEL] | Not Active | Not Active | Not Active | – | Not Active | Not Active | Not Active | Not Active | – | – | – | – | – | – | – | –
9 | CCCOc1ccc(C(=O)OCCN(CC)CC)cc1N [PROPARACAINE] | Not Active | – | Not Active | Not Active | Not Active | Not Active | Not Active | Not Active | 1.78 | – | – | – | – | – | – | –
10 | O=C(N/N=C/c1ccc([N+](=O)[O-])o1)c1cc([N+](=O)[O-])cc([N+](=O)[O-])c1O [NIFURSOL] | Not Active | Not Active | Not Active | Not Active | Not Active | Not Active | Not Active | Not Active | – | – | – | – | – | – | – | –
11 | CC(=O)Oc1ccc(C(c2ccc(OC(C)=O)cc2)c2ccccn2)cc1 [BISACODYL] | Not Active | Not Active | Not Active | Not Active | Not Active | Not Active | Not Active | Not Active | – | – | – | – | – | – | – | –
12 | CN(C)[C@@H]1C(O)=C(C(N)=O)C(=O)[C@@]2(O)C(O)=C3C(=O)c4c(O)ccc(Cl)c4[C@@](C)(O)[C@H]3C[C@@H]12 [CHLORTETRACYCLINE] | Not Active | Not Active | Not Active | Not Active | Not Active | Not Active | Not Active | Not Active | – | – | – | – | – | – | – | –
13 | Nc1ccn([C@@H]2O[C@H](CO)[C@@H](O)[C@@H]2O)c(=O)n1 [CYTARABINE] | Not Active | Not Active | Not Active | Not Active | Not Active | Not Active | Not Active | Not Active | – | – | – | – | – | – | – | –
14 | CCC1(CCC(C)C)C(=O)NC(=O)NC1=O [AMOBARBITAL] | Not Active | Not Active | Not Active | Not Active | Not Active | Not Active | Not Active | Not Active | – | – | – | – | – | – | – | –
15 | AURANOFIN | – | Not Active | – | Not Active | Not Active | Not Active | Not Active | Not Active | – | 659 | 224 | Not Active | 394 | Not Active | – | –
16 | O=C/C=C/c1ccccc1 | Not Active | Not Active | Not Active | Not Active | Not Active | Not Active | Not Active | Not Active | – | – | – | – | – | – | – | –
17 | COC1=C(OC)C(=O)C(CCCCCCCCCCO)=C(C)C1=O [IDEBENONE] | Not Active | Not Active | Not Active | Not Active | Not Active | Not Active | – | – | – | – | – | – | – | – | – | –
18 | COc1ccc2cc3[n+](cc2c1OC)CCc1cc2c(cc1-3)OCO2.[Cl-] [BERBERINE CHLORIDE] | Not Active | Not Active | Not Active | Not Active | Not Active | Not Active | – | – | – | – | – | – | – | – | – | –
19 | COc1cc([C@@H]2c3cc4c(cc3[C@@H](O[C@@H]3O[C@@H]5CO[C@@H](C)O[C@H]5[C@H](O)[C@H]3O)[C@H]3COC(=O)[C@H]23)OCO4)cc(OC)c1O [ETOPOSIDE] | Not Active | Not Active | Not Active | Not Active | Not Active | Not Active | – | – | – | – | – | – | – | – | – | –
20 | CC(C)=CCC/C(C)=C/CO [GERANIOL] | Not Active | Not Active | Not Active | Not Active | Not Active | Not Active | – | – | – | – | – | – | – | – | – | –
21 | CCCNCC(O)COc1ccccc1C(=O)CCc1ccccc1 (stereo unspecified) [PROPAFENONE] | Not Active | Not Active | Not Active | Not Active | Not Active | Not Active | – | – | – | – | – | – | – | – | – | –
22 | NCCCC(O)(P(=O)(O)O)P(=O)(O)O [ALENDRONIC ACID] | Not Active | Not Active | Not Active | Not Active | Not Active | Not Active | – | – | – | – | – | – | – | – | – | –
23 | C#C[C@]1(OC(C)=O)CC[C@H]2[C@@H]3CCC4=C[C@@H](OC(C)=O)CC[C@@H]4[C@H]3CC[C@@]21C [ETHYNODIOL DIACETATE] | Not Active | – | Not Active | Not Active | Not Active | Not Active | Not Active | Not Active | – | – | – | – | – | – | – | –
24 | COc1ccc2c3c1O[C@H]1C[C@@H](O)C=C[C@@]31CCN(C)C2 [GALANTAMINE] | Not Active | Not Active | Not Active | Not Active | Not Active | Not Active | – | – | – | – | – | – | – | – | – | –
25 | OC(CCCN1CCCCC1)(c1ccccc1)c1ccccc1 [DIPHENIDOL] | – | Not Active | Not Active | Not Active | Not Active | Not Active | – | – | – | – | – | – | – | – | 2310 | 785
26 | COc1cc(N)c(Cl)cc1C(=O)NC1CCN(CCCOc2ccc(F)cc2)CC1OC (stereo unspecified) [CISAPRIDE] | – | Not Active | Not Active | Not Active | Not Active | Not Active | – | – | – | – | – | – | – | – | 144 | 49
27 | C[C@@H]1C[C@H]2[C@@H]3CCC4=CC(=O)C=C[C@]4(C)[C@@]3(F)[C@@H](O)C[C@]2(C)[C@@]1(O)C(=O)CO [DEXAMETHASONE] | Not Active | Not Active | Not Active | Not Active | Not Active | Not Active | – | – | – | – | – | – | – | – | – | –
28 | Cc1c(OCC(F)(F)F)ccnc1C[S+]([O-])c1nc2ccccc2[nH]1 (stereo unspecified) [LANSOPRAZOLE] | Not Active | Not Active | Not Active | Not Active | Not Active | Not Active | – | – | – | – | – | – | – | – | – | –
29 | CN1[C@@H]2CC[C@H]1C[C@@H](OC(=O)C(CO)c1ccccc1)C2 (stereo partly specified) [ATROPINE] | Not Active | Not Active | Not Active | Not Active | Not Active | Not Active | – | – | – | – | – | – | – | – | – | –
30 | Cc1cc2c(OCC(CNC(C)(C)C)OC(=O)c3ccccc3)cccc2[nH]1 (stereo unspecified) [BOPINDOLOL] | Not Active | Not Active | Not Active | Not Active | Not Active | Not Active | – | – | – | – | – | – | – | – | – | –
